In general, EC50 refers to the concentration that produces a half-maximal response.

This note sets out measurements from patent US9920013B2, “2,5-dioxoimidazolidin-1-yl-3-urea derivatives as formyl peptide modulators” (Allergan, Inc., priority 2014, dated 2018).

The assay deals with T1, FPR2 (Homo sapiens, UniProt P25090).
T1 construct: expressed in transfected cells
T1 sequence (P25090 1-351): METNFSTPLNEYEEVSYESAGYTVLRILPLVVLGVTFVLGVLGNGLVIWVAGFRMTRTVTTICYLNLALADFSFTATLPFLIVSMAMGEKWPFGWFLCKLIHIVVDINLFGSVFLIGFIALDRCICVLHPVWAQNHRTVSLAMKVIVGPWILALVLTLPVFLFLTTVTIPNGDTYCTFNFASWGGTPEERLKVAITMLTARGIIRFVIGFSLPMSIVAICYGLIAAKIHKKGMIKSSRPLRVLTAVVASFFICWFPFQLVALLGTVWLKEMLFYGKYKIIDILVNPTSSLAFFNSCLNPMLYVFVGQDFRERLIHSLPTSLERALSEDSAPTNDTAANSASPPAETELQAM
The assay can be described thus: FPR2 calcium activity assay on FLIPR Tetra in CHO-Gα16 cells stably expressing FPR2. The class given is cell-based. Particulars: for EC50: compound-induced calcium activity, 0.61 to 10,000 nM. Here is the method: CHO-Gα16 cells stably expressing FPR2 were cultured in F12 media (10% FBS, 1% PSA, 400 μg/ml geneticin and 50 μg/ml hygromycin). In general, the day before the experiment, 18,000 cells/well were plated in a 384-well clear bottom poly-D-lysine coated plate. The following day the screening compound-induced calcium activity was assayed on a FLIPR^Tetra. The drug plates were prepared in 384-well microplates using EP3 and MultiPROBE robotic liquid handling systems. Compounds were tested at concentrations ranging from 0.61 to 10,000 nM. Results are expressed as EC50 (nM) and % efficacy values.

SMILES strings stand for the structures.

Turning to `CC(=O)NCCNC(=O)CC1(C(C)C)NC(=O)N(NC(=O)Nc2ccc(Br)cc2)C1=O` (stereo not drawn) [Compound 1, N-[2-(Acetylamino)ethyl]-2-[1-{[(4-Bromophenyl)carbamoyl]amino}-2,5-dioxo-4-(propan-2-yl)imidazolidin-4-yl]acetamide], the “FPR2 Gα16-CHO (%eff)” value is “(0.94)” and the EC50 was 6 nM.
`CC(=O)OCCNC(=O)CC1(C(C)C)NC(=O)N(NC(=O)Nc2ccc(Br)cc2F)C1=O` (stereo not drawn) [Compound 2, 2-({[1-{[(4-Bromo-2-Fluorophenyl)carbamoyl]amino}-2,5-dioxo-4-(propan-2-yl)imidazolidin-4-yl]acetyl}amino)ethyl acetate]: the “FPR2 Gα16-CHO (%eff)” value is “(0.94)” and the EC50 stood at 4 nM.
With `CC(=O)OCCNC(=O)CC1(C(C)C)NC(=O)N(NC(=O)Nc2ccc(Br)cc2)C1=O` (stereo not drawn) [Compound 3, 2-({[1-{[(4-Bromophenyl)carbamoyl]amino}-2,5-Dioxo-4-(propan-2-yl)imidazolidin-4-yl]acetyl}amino)ethyl acetate], the “FPR2 Gα16-CHO (%eff)” value was “(0.97)” and the EC50 was found to be 10 nM.
